Each structure is given as a SMILES string.

This experiment relates to d(AAGGG)4 (DNA, G4) AAGGGAAGGGAAGGGAAGGG
Put plainly: UV-vis absorption titration (Soret band); CD. Particulars: 100 mM KCl; 10 mM Tris-HCl, 0.1 mM EDTA, pH 7.4; 7 μM TMPyP4; 68% hypochromicity, 16 nm red shift.

As for `C[n+]1ccc(-c2c3nc(c(-c4cc[n+](C)cc4)c4ccc([nH]4)c(-c4cc[n+](C)cc4)c4nc(c(-c5cc[n+](C)cc5)c5ccc2[nH]5)C=C4)C=C3)cc1`, the binding entry is given as “yes”.

The values are drawn from paper PMC10563062 (2023).
